Results on 39 compounds are retold here after patent publication US20230234920A1, “Azirine Containing Compounds as Anti-Angiogenesis Agents and a Process for the Preparation Thereof” (COUNCIL OF SCIENTIFIC & INDUSTRIAL RESEARCH, priority 2020, published 2023).

This experiment concerns HUVECs. Description: Capillary-like tube formation assay (tubulogenesis). Format: cell-based, human. Conditions: for pIC50: Homo sapiens, HUVEC, anti-angiogenic activity, read-out: IC50 value; for remarks: remark on IC50 versus sunitinib. As for the experimental part:
FIG. 2 represents effect of Compound 1 on capillary tube formation of HUVECs. Endothelial cells in Matrigel were incubated with ECM basal medium in the presence of compound 1 at the indicated concentrations for 6 h. Cell viability was assessed by Calcein-AM dye added few min. before the completion of 6 h. then photographs at 10×magnification were taken using an inverted microscope. The tubule length of HUVECs was quantified by Leica QWin software. Tubule network formation is expressed as a percentage of that vehicle (0.1% DMSO) treated cells (control).
FIG. 9 represents effect of racemic mixture (chiral isomer 1-1 and chiral isomer 2-1) of Compound 1 on capillary tube formation of HUVECs. Endothelial cells seeded in matrigel were incubated at the indicated concentrations of compound 1 racemic mixtures (1-1 and 2-1) with ECM basal medium for 6 h. Calcein-AM treatment was added to the ECs few minutes before completion of 6 h and pictures were captured using an inverted microscope at 10×magnification. The tubular structures of HUVECs were measured using Leica QWin software and tubulogenesis was expressed as a % of that vehicle (0.1% DMSO) treated cells (control) well.
HUVEC cells were incubated with or without sunitinib (20 nM) for 6 h at indicated concentrations of chiral isomers of Compound 1 (1-1 and 2-1). Photographs were taken using an inverted microscope at 10×magnification after Calcein-AM treatment to the ECs few minutes before completion of 6 h. The tubule length of HUVECs was quantified by Leica QWin software represented as a % of that vehicle (0.1% DMSO) treated cells (control) well.
To examine the effect of Compound 1 on angiogenesis, capillary tube formation assay was performed on regular or reduced growth factor Matrigel, taking VEGF (50 ng/mL) treated cells as a positive control and sunitinib (50 nM) as a negative control (FIG. 2). HUVECs seeded onto the matrigel with compound 1 at different concentrations of (10 μM, 5 μM, 1 μM, 800 nM, 500 nM, 250 nM, 125 nM, 75 nM, 50 nM, 25 nM and 10 nM) were incubated for six hours.
HUVECs (Human Umbilical Vein Endothelial Cells) were seeded onto the pre-coated matrigel (CORNING; 354230) in 96 wells plate at the rate of 11000 cells/well in incomplete ECM basal medium. Control group received vehicle, VEGF at 50 ng/mL as a positive and sunitinib at 50 nM as a negative control were used. Compound 1 at different dose concentrations (10 μM, 5 μM, 1 μM, 800 nM, 500 nM, 250 nM, 100 nM, 75 nM, 50 nM and 25 nM) were employed on seeded HUVECs in incomplete medium. Post 6 h of incubation Calcein-AM (Invitrogen) was added to all the respective groups and then the tubule pattern was observed and photographs were taken using an inverted fluorescent microscope (DM 6000, Leica Microsystems, USA). Relative tubule lengths were measured using Leica Q-Win software version 3.5.1. (Leica Microsystems, Switzerland).

[1] abbreviates: endothelial tubule network assay.

pIC50: −log10 of the molar value.

Consider `C=CCCCC1=NC1C(=O)OCC` (centres unmarked) [Compound 2, Ethyl 3-(pent-4-en-1-yl)-2H-azirine-2-carboxylate], for which, under setting [1], the pIC50 is 6.60.
As to `CCOC(=O)C1N=C1CCC=C(C)C` (centres unmarked) [Compound 4, Ethyl 3-(4-methylpent-3-en-1-yl)-2H-azirine-2-carboxylate], the IC50 value result (endothelial tubule network assay, result in words) is “Not Active”.
For the compound `CCOC(=O)C1N=C1CC/C=C(\C)CCC=C(C)C` (centres unmarked) [Compound 5, Ethyl (E)-3-(4,8-dimethylnona-3,7-dien-1-yl)-2H-azirine-2-carboxylate], the pIC50 under setting [1] is 6.46.
On the same count and under the same terms, to `CCOC(=O)C1N=C1CCc1ccccc1` (centres unmarked) [Compound 6, Ethyl 3-phenethyl-2H-azirine-2-carboxylate] belongs 5.30; to `CCOC(=O)C1N=C1CCc1ccc(C)cc1` (centres unmarked) [Compound 7, Ethyl 3-(4-methylphenethyl)-2H-azirine-2-carboxylate], 5.40; to `CCOC(=O)C1N=C1CCc1ccc(C(C)(C)C)cc1` (centres unmarked) [Compound 9, Ethyl 3-(4-(tert-butyl)phenethyl)-2H-azirine-2-carboxylate], 6.26.
For `CCOC(=O)C1N=C1CCc1ccc(F)cc1` (centres unmarked) [Compound 10, Ethyl 3-(4-fluorophenethyl)-2H-azirine-2-carboxylate], the pIC50 under setting [1] was 6.22.
Same read-out and setting: next, `CCOC(=O)C1N=C1CC/C=C/c1ccccc1` (centres unmarked) [Compound 11, Ethyl (E)-3-(4-phenylbut-3-en-1-yl)-2H-azirine-2-carboxylate]: 6.35; `CCOC(=O)C1N=C1CCc1cc(OC)c(OC)c(OC)c1` (centres unmarked) [Compound 12, Ethyl 3-(3,4,5-trimethoxyphenethyl)-2H-azirine-2-carboxylate]: 6.70.
With `CCOC(=O)C1N=C1/C=C/c1ccc(OC)cc1` (centres unmarked) [Compound 13, Ethyl (E)-3-(4-methoxystyryl)-2H-azirine-2-carboxylate], the remarks result is listed as “comparable to sunitinib”. Also, the pIC50 under setting [1] was 7.00.
Turning to `COC(=O)C1N=C1CCc1ccc(OC)cc1` (centres unmarked) [Compound 14, Methyl 3-(4-methoxyphenethyl)-2H-azirine-2-carboxylate], the pIC50 under setting [1] is 6.12.
On to `CCOC(=O)C1N=C1CCc1ccc(Br)cc1` (centres unmarked) [Compound 15, Ethyl 3-(4-bromophenethyl)-2H-azirine-2-carboxylate], for which, under setting [1], the pIC50 is 6.10.
On the same count and under the same terms, next, `CCOC(=O)C1N=C1CCc1ccc(I)cc1` (centres unmarked) [Compound 16, Ethyl 3-(4-iodophenethyl)-2H-azirine-2-carboxylate]: 6.10; `COc1ccc(CCC2=NC2C(=O)OC(C)(C)C)cc1` (centres unmarked) [Compound 17, tert-Butyl 3-(4-methoxyphenethyl)-2H-azirine-2-carboxylate]: 6.40; `COc1ccc(CC2(C(=O)OCc3ccccc3)N=C2C)cc1` (centres unmarked) [Compound 18, Benzyl 2-(4-methoxybenzyl)-3-methyl-2H-azirine-2-carboxylate]: 6.40.
In the case of `CCCOC(=O)C1N=C1CCc1ccc(OC)cc1` (centres unmarked) [Compound 19, Propyl 3-(4-methoxyphenethyl)-2H-azirine-2-carboxylate], under setting [1], the pIC50 is 6.10.
Still for that read-out and setting: next, `COc1ccc(CCC2=NC2C(=O)OC(C)C)cc1` (centres unmarked) [Compound 20, Isopropyl 3-(4-methoxyphenethyl)-2H-azirine-2-carboxylate]: 6.12; `COc1ccc(CCC2=NC2C(=O)OCC(C)C)cc1` (centres unmarked) [Compound 21, Isobutyl 3-(4-methoxyphenethyl)-2H-azirine-2-carboxylate]: 6.12.
In the case of `CCC(C)OC(=O)C1N=C1CCc1ccc(OC)cc1` (centres unmarked) [Compound 22, sec-Butyl 3-(4-methoxyphenethyl)-2H-azirine-2-carboxylate], the pIC50 under setting [1] was 6.22.
Still for that read-out and setting: to `CCCCCOC(=O)C1N=C1CCc1ccc(OC)cc1` (centres unmarked) [Compound 23, Pentyl 3-(4-methoxyphenethyl)-2H-azirine-2-carboxylate] belongs 6.22; to `COc1ccc(CCC2=NC2C(=O)OCCC(C)C)cc1` (centres unmarked) [Compound 24, Isopentyl 3-(4-methoxyphenethyl)-2H-azirine-2-carboxylate], 6.15.
The same measure, in the same setting: next, `COCCOC(=O)C1N=C1CCc1ccc(OC)cc1` (centres unmarked) [Compound 25, 2-Methoxyethyl 3-(4-methoxyphenethyl)-2H-azirine-2-carboxylate]: 6.15; `C=CCOC(=O)C1N=C1CCc1ccc(OC)cc1` (centres unmarked) [Compound 26, Allyl 3-(4-methoxyphenethyl)-2H-azirine-2-carboxylate]: 6.30.
As for `CCOC(=O)C1N=C1CCc1ccc2ccccc2c1` (centres unmarked) [Compound 27, Ethyl 3-(2-(naphthalen-2-yl)ethyl)-2H-azirine-2-carboxylate], the remarks result is listed as “comparable to sunitinib”. The pIC50 under setting [1] is 7.00.
`CCOC(=O)C1N=C1CCc1ccc(OC(F)(F)F)cc1` (centres unmarked) [Compound 28, Ethyl 3-(4-(trifluoromethoxy)phenethyl)-2H-azirine-2-carboxylate]: the remarks entry is listed as “comparable to sunitinib”. Besides, the pIC50 under setting [1] was 7.30.
Take `CCCCCCCCOC(=O)C1N=C1CCc1ccc(OC)cc1` (centres unmarked) [Compound 29, Octyl 3-(4-methoxyphenethyl)-2H-azirine-2-carboxylate]: the pIC50 under setting [1] was 6.60.
Still for that read-out and setting: next, `CCOC(=O)C1N=C1CCC1CCCO1` (centres unmarked) [Compound 30, Ethyl 3-(2-(tetrahydrofuran-2-yl)ethyl)-2H-azirine-2-carboxylate]: 6.60; `CCOC(=O)C1N=C1CCc1ccc(C#N)cc1` (centres unmarked) [Compound 31, Ethyl 3-(4-cyanophenethyl)-2H-azirine-2-carboxylate]: 6.60.
With `CCCCOc1ccc(CCC2=NC2C(=O)OCC)cc1` (centres unmarked) [Compound 32, Ethyl 3-(4-butoxyphenethyl)-2H-azirine-2-carboxylate], the remarks entry is reported as “comparable to sunitinib”. Under setting [1], the pIC50 is 7.30.
Regarding `CCOC(=O)C1N=C1CCc1c2ccccc2cc2ccccc12` (centres unmarked) [Compound 33, Ethyl 3-(2-(anthracen-9-yl)ethyl)-2H-azirine-2-carboxylate], the remarks result was “comparable to sunitinib”. Also, the pIC50 under setting [1] is 7.30.
In the case of `CCOC(=O)C1(C(=O)OCC)N=C1CCc1ccc(OC)cc1` [Compound 35, Diethyl 3-(4-methoxyphenethyl)-2H-azirine-2,2-dicarboxylate], the pIC50 under setting [1] was 6.60.
The same measure, in the same setting: next, `C=Cc1ccc(CCC2=NC2C(=O)OCC)cc1` (centres unmarked) [Compound 36, Ethyl 3-(4-vinylphenethyl)-2H-azirine-2-carboxylate]: 6.60.
For `CCOC(=O)C1N=C1CCCc1ccc2c(c1)CCO2` (centres unmarked) [Compound 37, Ethyl-3-(3-(2,3-dihydrobenzofuran-5-yl)propyl)-2H-azirine-2-carboxylate], the remarks entry is reported as “comparable to sunitinib”. Also, the pIC50 under setting [1] is 7.30.
`CCOC(=O)C1N=C1CCc1cn(C(=O)OC(C)(C)C)c2ccccc12` (centres unmarked) [Compound 38, tert-Butyl-3-(2-(2-(ethoxycarbonyl)-2H-azirin-3-yl)ethyl)-1H-indole-1-carboxylate]: the remarks result is on record as “comparable to sunitinib”. In addition, the pIC50 under setting [1] was 7.12.
`CCOC(=O)C1N=C1CCc1ccc2c(c1)CCO2` (centres unmarked) [Compound 39, Ethyl 3-(2-(2,3-dihydrobenzofuran-5-yl)ethyl)-2H-azirine-2-carboxylate]: the pIC50 under setting [1] was 5.60.
For `CCOC(=O)C1N=C1CCCc1ccc2occc2c1` (centres unmarked) [Compound 40, Ethyl-3-(3-(benzofuran-5-yl)propyl)-2H-azirine-2-carboxylate], under setting [1], the pIC50 was 6.30.
`CCOC(=O)C1N=C1CCc1ccc2c(c1)OCO2` (centres unmarked) [Compound 41, Ethyl 3-(2-(benzo[d][1,3]dioxol-5-yl)ethyl)-2H-azirine-2-carboxylate]: the pIC50 under setting [1] was 6.00.
In the case of `CCOC(=O)C1N=C1CCCCc1ccc2c(c1)CCO2` (centres unmarked) [Compound 42, Ethyl 3-(4-(2,3-dihydrobenzofuran-5-yl)butyl)-2H-azirine-2-carboxylate], the remarks entry is reported as “comparable to sunitinib”. The pIC50 under setting [1] is 7.60.
For the compound `CCOC(=O)C1N=C1CCCc1ccc2c(c1)OCO2` (centres unmarked) [Compound 43, Ethyl 3-(3-(benzo[d][1,3]dioxol-5-yl)propyl)-2H-azirine-2-carboxylate], the pIC50 under setting [1] was 6.60.

What is called pIC50 is the IC50 on a negative log10 scale, so that one unit is a factor of ten.
